Measured values from ChEMBL document CHEMBL1201862, “PubChem BioAssay data set” (2004).
Blank lines part the entries; values can stand above or below the molecule they belong to. Activity calls are given as the source filed them.

Assays:
[1] = inhibitors of Vif binding to APOBEC3G peptide, primary screen, biochemical, TR-FRET, GST-Vif 1-94, biotin-A3G peptide, dose response retest (AID 1117319); assay type: functional;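 note: TR-FRET signal of purified GST-Vif binding a biotinylated A3G peptide; inhibitors lower the FRET signal by blocking Vif and A3G binding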
[2] = target: Voltage-dependent T-type calcium channel subunit alpha-1H (Homo sapiens, UniProt O95180); assay type: functional;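 note: channel activity triggered by adding a high calcium stimulation buffer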
Chain of Voltage-dependent T-type calcium channel subunit alpha-1H (O95180 whole entry): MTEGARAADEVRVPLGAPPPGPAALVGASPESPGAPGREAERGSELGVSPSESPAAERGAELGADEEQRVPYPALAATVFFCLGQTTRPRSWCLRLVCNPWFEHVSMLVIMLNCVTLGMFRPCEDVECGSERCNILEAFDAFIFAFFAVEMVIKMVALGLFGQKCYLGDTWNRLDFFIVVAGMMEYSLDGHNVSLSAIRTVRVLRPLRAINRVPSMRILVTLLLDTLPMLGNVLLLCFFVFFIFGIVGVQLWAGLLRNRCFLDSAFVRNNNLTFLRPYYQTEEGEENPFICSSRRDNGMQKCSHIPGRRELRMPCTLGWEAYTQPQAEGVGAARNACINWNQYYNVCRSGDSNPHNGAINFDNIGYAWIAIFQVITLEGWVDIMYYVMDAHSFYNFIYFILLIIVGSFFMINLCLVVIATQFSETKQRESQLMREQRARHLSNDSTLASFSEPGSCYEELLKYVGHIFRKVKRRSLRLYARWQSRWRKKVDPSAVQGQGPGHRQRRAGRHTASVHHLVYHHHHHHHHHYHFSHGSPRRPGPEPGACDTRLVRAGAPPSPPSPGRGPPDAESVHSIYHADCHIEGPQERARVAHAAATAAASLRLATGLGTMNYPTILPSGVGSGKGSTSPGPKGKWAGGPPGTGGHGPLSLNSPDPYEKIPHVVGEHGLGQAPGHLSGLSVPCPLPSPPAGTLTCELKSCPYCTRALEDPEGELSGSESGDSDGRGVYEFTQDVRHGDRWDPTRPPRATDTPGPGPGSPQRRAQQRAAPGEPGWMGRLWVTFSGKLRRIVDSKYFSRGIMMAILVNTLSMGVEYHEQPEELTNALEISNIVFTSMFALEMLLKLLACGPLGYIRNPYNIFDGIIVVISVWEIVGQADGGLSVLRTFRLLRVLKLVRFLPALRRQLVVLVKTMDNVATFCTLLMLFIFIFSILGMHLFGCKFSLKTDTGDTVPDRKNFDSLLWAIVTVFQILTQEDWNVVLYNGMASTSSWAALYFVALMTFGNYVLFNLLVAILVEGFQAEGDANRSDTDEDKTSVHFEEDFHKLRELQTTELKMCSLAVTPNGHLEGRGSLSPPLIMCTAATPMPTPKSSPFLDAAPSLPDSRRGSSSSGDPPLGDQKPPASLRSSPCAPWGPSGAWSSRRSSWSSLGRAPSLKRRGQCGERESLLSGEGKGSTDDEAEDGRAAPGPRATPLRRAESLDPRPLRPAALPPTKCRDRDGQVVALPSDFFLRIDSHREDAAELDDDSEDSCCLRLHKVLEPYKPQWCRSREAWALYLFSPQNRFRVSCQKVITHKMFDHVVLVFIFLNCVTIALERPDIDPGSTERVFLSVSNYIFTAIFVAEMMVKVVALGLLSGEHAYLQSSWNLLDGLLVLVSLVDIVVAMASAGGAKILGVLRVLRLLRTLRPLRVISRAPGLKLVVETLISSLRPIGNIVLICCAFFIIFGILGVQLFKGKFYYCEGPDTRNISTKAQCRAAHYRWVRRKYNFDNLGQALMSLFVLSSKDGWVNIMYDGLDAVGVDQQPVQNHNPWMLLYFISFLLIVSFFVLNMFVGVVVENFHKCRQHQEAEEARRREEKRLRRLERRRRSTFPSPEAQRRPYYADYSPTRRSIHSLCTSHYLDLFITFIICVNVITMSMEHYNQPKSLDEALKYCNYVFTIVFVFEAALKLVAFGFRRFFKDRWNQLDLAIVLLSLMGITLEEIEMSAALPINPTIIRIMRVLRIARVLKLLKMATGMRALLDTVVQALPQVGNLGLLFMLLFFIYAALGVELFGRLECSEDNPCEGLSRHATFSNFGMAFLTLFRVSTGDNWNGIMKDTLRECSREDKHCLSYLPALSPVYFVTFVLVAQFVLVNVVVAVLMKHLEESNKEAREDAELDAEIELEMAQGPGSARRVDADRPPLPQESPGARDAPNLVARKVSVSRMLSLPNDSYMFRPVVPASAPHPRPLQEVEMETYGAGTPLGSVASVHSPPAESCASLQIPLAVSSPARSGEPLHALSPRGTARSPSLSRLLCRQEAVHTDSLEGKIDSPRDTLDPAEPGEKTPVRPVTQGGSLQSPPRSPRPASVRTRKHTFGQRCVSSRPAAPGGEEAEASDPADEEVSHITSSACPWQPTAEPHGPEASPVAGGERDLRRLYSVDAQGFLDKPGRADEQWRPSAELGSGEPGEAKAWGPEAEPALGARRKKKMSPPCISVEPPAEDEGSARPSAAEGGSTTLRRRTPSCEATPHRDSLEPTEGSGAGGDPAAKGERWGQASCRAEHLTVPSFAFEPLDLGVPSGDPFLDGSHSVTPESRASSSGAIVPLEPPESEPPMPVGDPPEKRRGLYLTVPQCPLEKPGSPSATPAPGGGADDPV

[3] = target: Peroxisome proliferator-activated receptor gamma/Nuclear receptor coactivator 2 (Homo sapiens, UniProt P37231); assay type: functional;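 note: agonist potency for raising coactivator recruitment to the receptor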
[4] = target: Peroxisome proliferator-activated receptor gamma/Nuclear receptor coactivator 1 (Homo sapiens, UniProt P37231); assay type: functional;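 note: agonist potency as compounds enhance coactivator SRC-1 recruitment to PPARgamma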
[5] = target: Peroxisome proliferator-activated receptor gamma/Nuclear receptor coactivator 3 (Homo sapiens, UniProt P37231); assay type: functional;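 note: agonist potency for raising coactivator recruitment to the receptor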
[6] = MC4R antagonists, dose response, counter-screen for LGR2 antagonist project, cell-based, plate reader, cherry pick (AID 743444); assay type: functional;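 note: transfected HEK 293 cells stimulated with alpha-MSH peptide; potency of inhibitors of the alpha-MSH evoked signal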
[7] = HepG2 cell cytotoxicity, dose response, cytotoxicity control, plate reader, cherry-pick, antagonist series (AID 743416); assay type: functional, cell-based
[8] = LGR2 antagonists, dose response, cell-based, HEK293, CRE-luciferase reporter, cherry pick, set 2 (AID 743343); assay type: functional;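 note: transfected cells were stimulated with diluted bursicon conditioned medium after compound addition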
[9] = target: T1, Methionyl-tRNA synthetase, putative (Trypanosoma brucei brucei, UniProt Q38C91); assay type: functional, Trypanosoma brucei brucei strain 927/4 GUTat10.1;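 note: Read-out by fluorescence polarization, run as a confirmatory high-throughput counterscreen; potency of MetRS inhibitors measured by reduced AMP formation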
T1 sequence (Q38C91 whole entry): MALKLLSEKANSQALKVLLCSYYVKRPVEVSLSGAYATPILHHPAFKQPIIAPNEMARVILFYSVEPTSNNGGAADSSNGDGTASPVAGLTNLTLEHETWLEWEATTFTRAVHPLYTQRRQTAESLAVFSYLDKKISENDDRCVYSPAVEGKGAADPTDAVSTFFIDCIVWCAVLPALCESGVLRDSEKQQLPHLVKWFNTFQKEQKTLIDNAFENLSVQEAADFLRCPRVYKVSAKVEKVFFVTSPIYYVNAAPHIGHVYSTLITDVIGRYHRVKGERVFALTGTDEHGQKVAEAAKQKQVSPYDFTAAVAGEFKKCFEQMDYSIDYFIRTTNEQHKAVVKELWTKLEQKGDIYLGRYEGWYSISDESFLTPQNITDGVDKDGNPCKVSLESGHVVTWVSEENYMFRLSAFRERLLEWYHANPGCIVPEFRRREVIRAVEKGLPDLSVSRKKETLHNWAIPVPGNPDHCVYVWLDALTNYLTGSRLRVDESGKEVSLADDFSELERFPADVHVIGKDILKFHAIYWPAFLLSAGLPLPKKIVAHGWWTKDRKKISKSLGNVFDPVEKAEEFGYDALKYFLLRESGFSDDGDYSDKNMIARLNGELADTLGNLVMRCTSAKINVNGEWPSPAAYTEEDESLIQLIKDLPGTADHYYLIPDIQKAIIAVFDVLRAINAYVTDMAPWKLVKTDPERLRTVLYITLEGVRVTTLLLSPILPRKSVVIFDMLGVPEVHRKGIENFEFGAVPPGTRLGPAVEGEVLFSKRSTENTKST

[10] = Counterscreen for inhibitors of Trypanosoma brucei methionyl tRNA synthetase (MetRS): Luminescence-based cell-based high throughput dose response assay to identify compounds that are cytotoxic to Jurkat human T lymphocyte cells.; assay type: functional
[11] = target: Beta-galactosidase (Escherichia coli, UniProt Q8VNN2); assay: Dose response counterscreen for EBI2 assay utilizing the enzyme, b-galactosidase.; assay type: functional
Chain of Beta-galactosidase (Q8VNN2 whole entry): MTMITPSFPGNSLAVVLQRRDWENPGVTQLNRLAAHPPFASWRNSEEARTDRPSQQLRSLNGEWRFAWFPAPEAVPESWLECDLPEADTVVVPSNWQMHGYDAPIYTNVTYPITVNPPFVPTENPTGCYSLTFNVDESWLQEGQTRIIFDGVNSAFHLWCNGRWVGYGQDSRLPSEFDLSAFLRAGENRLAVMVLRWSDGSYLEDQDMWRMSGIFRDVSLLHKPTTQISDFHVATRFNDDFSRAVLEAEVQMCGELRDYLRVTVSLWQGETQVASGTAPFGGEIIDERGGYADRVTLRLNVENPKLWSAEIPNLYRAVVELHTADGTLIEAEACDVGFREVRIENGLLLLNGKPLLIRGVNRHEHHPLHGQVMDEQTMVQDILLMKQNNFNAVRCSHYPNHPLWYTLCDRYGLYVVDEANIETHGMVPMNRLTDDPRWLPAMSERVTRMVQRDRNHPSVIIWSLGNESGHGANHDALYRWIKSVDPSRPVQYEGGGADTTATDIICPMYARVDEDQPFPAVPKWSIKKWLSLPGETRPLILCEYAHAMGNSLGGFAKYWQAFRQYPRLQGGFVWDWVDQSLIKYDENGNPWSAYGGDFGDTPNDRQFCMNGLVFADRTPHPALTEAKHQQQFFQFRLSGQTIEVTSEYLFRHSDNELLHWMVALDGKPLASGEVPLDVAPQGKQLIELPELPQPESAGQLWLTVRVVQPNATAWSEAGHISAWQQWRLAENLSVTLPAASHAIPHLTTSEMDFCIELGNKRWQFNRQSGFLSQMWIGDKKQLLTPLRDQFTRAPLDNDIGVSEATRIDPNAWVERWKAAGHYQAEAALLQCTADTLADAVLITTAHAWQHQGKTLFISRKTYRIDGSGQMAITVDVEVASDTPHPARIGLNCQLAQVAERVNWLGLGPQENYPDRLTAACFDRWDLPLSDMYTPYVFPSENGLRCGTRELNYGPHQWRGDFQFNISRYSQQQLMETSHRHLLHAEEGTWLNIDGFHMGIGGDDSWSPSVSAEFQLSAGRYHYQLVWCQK

[12] = target: Eukaryotic translation initiation factor 4E (Mus musculus, UniProt P63073); assay: eIF4E–eIF4G protein interaction inhibitors, dose response, biochemical, TR-FRET (AID 855); assay type: functional;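 note: potency for disrupting eIF4E binding to eIF4GI seen as loss of FRET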
Chain of Eukaryotic translation initiation factor 4E (P63073 whole entry): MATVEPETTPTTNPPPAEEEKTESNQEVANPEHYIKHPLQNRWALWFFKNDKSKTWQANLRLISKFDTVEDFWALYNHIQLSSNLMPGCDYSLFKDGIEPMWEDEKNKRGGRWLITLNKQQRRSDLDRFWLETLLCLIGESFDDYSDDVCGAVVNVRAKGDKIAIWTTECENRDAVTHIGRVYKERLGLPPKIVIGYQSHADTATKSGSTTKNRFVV

[13] = target: T2, Ubiquitin-conjugating enzyme E2 N (Homo sapiens, UniProt P61088); assay type: functional;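 note: Dose-response confirmation in a TR-FRET assay detecting UBC13-driven polyubiquitin chain formation, inhibition measured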
T2 sequence (P61088 whole entry): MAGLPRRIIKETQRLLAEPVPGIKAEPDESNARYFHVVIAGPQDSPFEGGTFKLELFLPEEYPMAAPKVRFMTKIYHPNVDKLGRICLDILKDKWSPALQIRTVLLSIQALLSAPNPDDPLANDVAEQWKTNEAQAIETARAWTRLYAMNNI

[14] = target: T3, DNA repair and recombination protein RAD54-like (Homo sapiens, UniProt Q92698); assay: inhibitors of human RAD54 branch migration, confirmation, biochemical, fluorescence, cherry-picked samples, dose series (AID 651657); assay type: functional
T3 sequence (Q92698 whole entry): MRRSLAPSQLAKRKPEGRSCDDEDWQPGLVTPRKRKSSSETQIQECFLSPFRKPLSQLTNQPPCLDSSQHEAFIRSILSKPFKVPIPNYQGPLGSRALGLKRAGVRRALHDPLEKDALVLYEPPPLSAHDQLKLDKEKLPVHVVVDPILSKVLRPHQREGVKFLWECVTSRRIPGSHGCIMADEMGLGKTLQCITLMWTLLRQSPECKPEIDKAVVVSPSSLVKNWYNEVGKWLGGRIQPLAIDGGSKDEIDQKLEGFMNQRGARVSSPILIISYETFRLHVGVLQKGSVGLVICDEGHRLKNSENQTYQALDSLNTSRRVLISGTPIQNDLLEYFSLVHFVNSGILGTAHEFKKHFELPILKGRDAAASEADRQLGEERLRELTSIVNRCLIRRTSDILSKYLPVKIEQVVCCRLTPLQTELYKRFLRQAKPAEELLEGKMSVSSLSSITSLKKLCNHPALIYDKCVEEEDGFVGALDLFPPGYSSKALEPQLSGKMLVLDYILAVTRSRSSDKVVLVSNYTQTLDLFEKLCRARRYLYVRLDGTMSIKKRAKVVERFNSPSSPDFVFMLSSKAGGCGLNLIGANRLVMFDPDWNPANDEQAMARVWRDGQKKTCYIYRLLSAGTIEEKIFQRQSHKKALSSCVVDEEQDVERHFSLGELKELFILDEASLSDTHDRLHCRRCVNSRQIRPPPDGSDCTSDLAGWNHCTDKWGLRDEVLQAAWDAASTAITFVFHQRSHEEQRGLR

[15] = target: T4, DNA repair protein RAD52 homolog (Homo sapiens, UniProt P43351); assay type: functional, biochemical
T4 sequence (P43351 whole entry): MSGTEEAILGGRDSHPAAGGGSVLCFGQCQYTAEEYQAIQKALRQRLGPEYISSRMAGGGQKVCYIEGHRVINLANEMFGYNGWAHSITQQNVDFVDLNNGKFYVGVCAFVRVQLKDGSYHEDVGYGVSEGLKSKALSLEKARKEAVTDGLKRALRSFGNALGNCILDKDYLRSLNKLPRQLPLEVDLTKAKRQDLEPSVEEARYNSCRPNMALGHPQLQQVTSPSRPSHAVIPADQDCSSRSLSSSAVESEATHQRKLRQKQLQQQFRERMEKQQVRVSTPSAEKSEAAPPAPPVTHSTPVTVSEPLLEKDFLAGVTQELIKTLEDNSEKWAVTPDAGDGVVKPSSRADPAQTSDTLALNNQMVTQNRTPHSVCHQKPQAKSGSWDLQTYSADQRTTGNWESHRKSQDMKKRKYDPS

[16] = target: Cytochrome P450 3A4 (Homo sapiens, UniProt P08684);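 note: CYP3A4 tested as one member of a cytochrome P450 panel screen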
Chain of Cytochrome P450 3A4 (P08684 whole entry): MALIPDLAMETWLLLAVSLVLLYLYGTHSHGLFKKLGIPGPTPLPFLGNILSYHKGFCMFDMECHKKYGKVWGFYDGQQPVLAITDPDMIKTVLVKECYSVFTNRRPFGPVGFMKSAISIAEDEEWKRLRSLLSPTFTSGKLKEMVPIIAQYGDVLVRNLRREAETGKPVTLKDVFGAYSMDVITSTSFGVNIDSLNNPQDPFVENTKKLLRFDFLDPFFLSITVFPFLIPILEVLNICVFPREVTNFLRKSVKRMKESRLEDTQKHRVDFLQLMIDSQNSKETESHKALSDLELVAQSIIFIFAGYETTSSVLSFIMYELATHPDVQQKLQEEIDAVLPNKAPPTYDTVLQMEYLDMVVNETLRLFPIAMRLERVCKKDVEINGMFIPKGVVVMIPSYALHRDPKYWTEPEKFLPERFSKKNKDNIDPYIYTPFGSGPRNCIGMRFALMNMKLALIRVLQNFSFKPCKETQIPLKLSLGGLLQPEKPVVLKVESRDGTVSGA

[17] = target: Cytochrome P450 2C9 (Homo sapiens, UniProt P11712)
[18] = target: T5, Estrogen receptor (Homo sapiens, UniProt P03372);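 note: potency for inhibiting coactivator peptide recruitment to the receptor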
T5 sequence (P03372 whole entry): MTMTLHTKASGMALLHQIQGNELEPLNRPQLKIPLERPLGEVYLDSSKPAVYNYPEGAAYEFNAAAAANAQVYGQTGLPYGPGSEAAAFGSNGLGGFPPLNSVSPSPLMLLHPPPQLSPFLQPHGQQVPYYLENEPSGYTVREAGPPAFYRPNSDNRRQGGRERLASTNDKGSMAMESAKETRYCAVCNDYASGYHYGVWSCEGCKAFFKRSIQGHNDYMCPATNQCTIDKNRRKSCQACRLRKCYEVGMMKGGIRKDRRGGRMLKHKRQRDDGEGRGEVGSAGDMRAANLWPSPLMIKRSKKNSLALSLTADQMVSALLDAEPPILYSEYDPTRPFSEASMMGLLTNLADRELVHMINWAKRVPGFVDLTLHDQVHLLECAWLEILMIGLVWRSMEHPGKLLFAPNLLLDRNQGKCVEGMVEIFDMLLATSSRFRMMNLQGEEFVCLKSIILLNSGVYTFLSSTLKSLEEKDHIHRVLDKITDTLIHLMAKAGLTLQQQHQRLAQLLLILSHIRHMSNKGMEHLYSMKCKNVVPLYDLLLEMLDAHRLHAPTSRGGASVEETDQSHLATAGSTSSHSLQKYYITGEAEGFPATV

[19] = target: T6, Estrogen receptor beta (Homo sapiens, UniProt Q92731); assay: ERβ–SRC-3 coactivator interaction inhibitors, confirmation, orthogonal assay, biochemical, ELISA, streptavidin-HRP readout (AID 1060)
T6 sequence (Q92731 whole entry): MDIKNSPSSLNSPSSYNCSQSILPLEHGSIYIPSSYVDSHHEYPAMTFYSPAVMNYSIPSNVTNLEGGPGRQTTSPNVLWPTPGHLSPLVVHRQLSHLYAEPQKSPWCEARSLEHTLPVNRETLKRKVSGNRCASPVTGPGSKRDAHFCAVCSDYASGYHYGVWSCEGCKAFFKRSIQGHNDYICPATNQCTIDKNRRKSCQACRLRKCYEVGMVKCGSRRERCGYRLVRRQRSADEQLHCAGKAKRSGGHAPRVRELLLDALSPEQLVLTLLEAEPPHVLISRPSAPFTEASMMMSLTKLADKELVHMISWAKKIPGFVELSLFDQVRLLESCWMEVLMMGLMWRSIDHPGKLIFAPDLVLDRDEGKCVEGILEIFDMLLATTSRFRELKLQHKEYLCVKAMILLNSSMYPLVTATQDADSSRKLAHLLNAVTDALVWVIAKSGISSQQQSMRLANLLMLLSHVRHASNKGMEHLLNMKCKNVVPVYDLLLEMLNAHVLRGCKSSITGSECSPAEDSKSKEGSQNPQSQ

[20] = target: T6, Estrogen receptor beta
[21] = target: DNA dC->dU-editing enzyme APOBEC-3A (Homo sapiens, UniProt P31941); assay: Dose Response confirmation of small molecule APOBEC3A DNA Deaminase Inhibitors via a fluorescence-based single-stranded DNA deaminase assay. [Related pubchem assays (depositor defined):AID493011, AID493024]; assay type: functional
[22] = target: DNA dC->dU-editing enzyme APOBEC-3G (Homo sapiens, UniProt Q9HC16); assay type: functional;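 note: Dose-response counterscreen measuring inhibition of APOBEC3G DNA deaminase activity, run while confirming APOBEC3A inhibitors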
Chain of DNA dC->dU-editing enzyme APOBEC-3G (Q9HC16 whole entry): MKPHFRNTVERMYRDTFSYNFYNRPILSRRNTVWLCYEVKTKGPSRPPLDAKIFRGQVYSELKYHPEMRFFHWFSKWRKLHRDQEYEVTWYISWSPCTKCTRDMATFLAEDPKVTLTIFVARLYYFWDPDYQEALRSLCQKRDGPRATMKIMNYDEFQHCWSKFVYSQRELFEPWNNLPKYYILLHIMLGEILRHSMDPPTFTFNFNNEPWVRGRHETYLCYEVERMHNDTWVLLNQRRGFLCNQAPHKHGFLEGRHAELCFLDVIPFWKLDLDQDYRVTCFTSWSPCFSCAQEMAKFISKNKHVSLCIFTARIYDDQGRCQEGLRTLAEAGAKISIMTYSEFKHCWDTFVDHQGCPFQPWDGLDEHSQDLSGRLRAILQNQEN

[23] = C. albicans growth with fluconazole, confirmation, fluorescence, retest (AID 2467); assay type: functional, cell-based
[24] = NIH-3T3 fibroblast cytotoxicity, dose response, cytotoxicity control, cell-based, fluorescence, Alamar Blue, secondary assay (AID 2327); assay type: functional;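 note: NIH-3T3 mouse fibroblasts cultured with fluconazole at 8 µg/mL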

IC50 [1]: > 100 µM (active)
SMILES: CCOC(=O)CN1C(=O)C(Sc2n[nH]c(-c3ccccc3)n2)CCc2ccccc21 (stereo not given)

EC50 [3]: 77.4 µM (not active)
EC50 [4]: > 79.4 µM (not active)
EC50 [5]: > 79.4 µM (not active)
SMILES: CCOC(=O)c1sc(NC(=O)CSc2nnnn2-c2ccc(C)c(C)c2)nc1C

EC50 [3]: > 79.4 µM (not active)
EC50 [4]: > 79.4 µM (not active)
EC50 [5]: > 79.4 µM (not active)
SMILES: CCN(CC)CCN(Cc1cc2cc3c(cc2[nH]c1=O)OCCO3)C(=O)NC1CCCCC1

EC50 [2]: 13.9 µM (active)
SMILES: O=C(CCCOc1ccccc1)N1CCN(c2ccccc2)CC1

IC50 [1]: > 100 µM (active)
SMILES: CC(C)n1c(CCC(=O)O)ccc1-c1ccccc1

EC50 [2]: 3.87 µM (active)
SMILES: CCN(CC)S(=O)(=O)c1ccc(C(=O)NCCSc2c[nH]c3ccccc23)cc1

IC50 [13]: > 20 µM (inactive)
AC50 [14]: 32.3 µM (active)
SMILES: CCCCN(CC)CCNC(=O)c1cc2c(=O)n(C)c3ccccc3c2n1C

AC50 [14]: 11.5 µM (active)
AC50 [15]: 5.36 µM (active)
SMILES: N=c1c(C(=O)NCCN2CCOCC2)cc2c(=O)n3ccccc3nc2n1CCCN1CCOCC1

EC50 [2]: 5.73 µM (active)
SMILES: CCn1c(CSc2nc3ccccc3s2)nc2ccccc21

IC50 [1]: > 100 µM (active)
SMILES: Cc1ccc(C(C)C)c(OCCN(C)C)c1

EC50 [3]: 10.5 µM (not active)
EC50 [4]: 11 µM (not active)
EC50 [5]: 15.2 µM (not active)
SMILES: CCOC(=O)c1s/c(=N\C(=O)c2cccc(OC)c2)n(C)c1C

IC50 [12]: > 64 µM (inactive)
SMILES: CCCCCCCCCC(=O)N/N=C/c1ccc(C)s1

Further lines, the molecule ahead of its results:

SMILES: O=C(Nc1nc(-c2cccs2)cs1)c1cccc(S(=O)(=O)N2CCCCC2)c1
EC50 [2]: 4.13 µM (active)

SMILES: CC1CCCN(c2ncnc3c2cnn3-c2ccccc2)C1 (stereo not given)
AC50 [6]: 6.32 µM (active)
AC50 [7]: > 52 µM (inactive)
AC50 [8]: 2.89 µM (active)

SMILES: Cc1csc(CNc2ncnc3ccc(-c4ccccc4Cl)cc23)c1
IC50 [9]: 97.8 µM (inactive)
IC50 [10]: 83.3 µM (inactive)

SMILES: Cc1[nH]c(-c2ccc(F)cc2)cc1C(=O)N1CCN(c2ccccc2F)CC1
IC50 [11]: > 80 µM (inactive)

SMILES: Cc1ccc(N2C(=O)c3ccccc3C2(O)c2ncc[nH]2)cc1 (stereo not given)
IC50 [12]: > 64 µM (inactive)

SMILES: Fc1ccccc1CSc1nc2ncc(Br)cc2[nH]1
IC50 [9]: 82.2 µM (inactive)
EC50 [3]: 24.2 µM (not active)
EC50 [4]: 36.8 µM (not active)
EC50 [5]: 49.5 µM (not active)

SMILES: O=C(COc1ccc(Br)cc1)N1CCC(c2ccccc2)C1 (stereo not given)
AC50 [16]: 28.2 µM (inconclusive)
IC50 [11]: > 80 µM (inactive)

SMILES: O=C1NC(c2ccc(Br)cc2)Nc2sc3c(c21)CCC3 (stereo not given)
AC50 [17]: 6.31 µM (inconclusive)
AC50 [16]: 28.2 µM (inconclusive)
IC50 [18]: 19.4 µM (active)
IC50 [19]: < 0.023 µM (not active)
IC50 [20]: > 50 µM (not active)

SMILES: Cc1ccc(C)c(SCC(=O)OCC(=O)c2ccco2)c1
IC50 [21]: 18 µM (active)
IC50 [18]: > 50 µM (not active)
IC50 [19]: 0.0912 µM (not active)
IC50 [20]: 6.74 µM (active)
IC50 [22]: 46.3 µM (active)

SMILES: O=C1C=C(Nc2ccc(Cl)cc2)CC(c2ccc(Cl)cc2)C1 (stereo not given)
AC50 [16]: 20 µM (inconclusive)
IC50 [11]: > 80 µM (inactive)

SMILES: O=C(/C=C/c1ccc(F)cc1)N1CCN(c2ccccn2)CC1
EC50 [23]: 2.94 µM (active)
IC50 [11]: > 80 µM (inactive)
EC50 [24]: > 160 µM (inactive)

SMILES: CC1=CCC(/C=N\Nc2n[nH]c3c4ccccc4nc-3n2)CC1 (stereo not given)
IC50 [1]: > 100 µM (active)
